Results: PubChem BioAssay AID1963431 (Molecular Pharmacology Branch, DTP, NCI, 2024)
Values belong to the compound of their own block, whether it stands above or below them.

Tested on: Rh18 complex spheroid viability, percent test/control
Experiment: Anticancer human tumor Rh18 cell line growth inhibition [Asc];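 note: spheroids exposed to compound for 7 days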;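 for viability, T/C: 100% = DMSO vehicle control wells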
Conditions: for IC50: curve of first compound; for viability, T/C: stronger effect = lower value
Method in brief: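 Stromal components (HUVEC and hMSC) are co-assembled with the cancer cells into multicellular spheroids. Drugs are then added singly or paired, at concentrations falling by half-log increments from a clinically achievable maximum, capped at 10 microM without known Cmax.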

IC50 (second compound 0.1 µM): < 31.6 nM
IC50 (second compound 0.316 µM): < 31.6 nM
IC50 (second compound 1 µM): < 31.6 nM
IC50 (second compound 3.16 µM): < 31.6 nM
IC50 (second compound 10 µM): < 31.6 nM
SMILES: C#Cc1c(F)ccc2cc(O)cc(-c3ncc4c(N5CC6CCC(C5)N6)nc(OCC56CCCN5CC(F)C6)nc4c3F)c12 (stereo not given) + Cc1c(S(C)(=O)=O)c(-c2cc(F)cc(N3CCN(c4ccc(NS(=O)(=O)c5ccc(NC(CCN6CCC(C(=O)OCCCP(=O)(O)O)CC6)CSc6ccccc6)c(S(=O)(=O)C(F)(F)F)c5)cc4)CC3)c2)c(-c2ccc(Cl)cc2)n1C(C)C
viability, T/C (second compound 0.1 µM, first compound 0.0316 µM): 14.1%
viability, T/C (second compound 0.1 µM, first compound 0.1 µM): 10.3%
viability, T/C (second compound 0.1 µM, first compound 0.316 µM): 12.1%
viability, T/C (second compound 0.1 µM, first compound 1 µM): 13%
viability, T/C (second compound 0.1 µM, first compound 3.16 µM): 15.7%
viability, T/C (second compound 0.1 µM, first compound 10 µM): 15.8%
viability, T/C (second compound 0.316 µM, first compound 0.0316 µM): 11%
viability, T/C (second compound 0.316 µM, first compound 0.1 µM): 10.6%
viability, T/C (second compound 0.316 µM, first compound 0.316 µM): 10.8%
viability, T/C (second compound 0.316 µM, first compound 1 µM): 8.98%
viability, T/C (second compound 0.316 µM, first compound 3.16 µM): 10.4%
viability, T/C (second compound 0.316 µM, first compound 10 µM): 12.9%
viability, T/C (second compound 1 µM, first compound 0.0316 µM): 8.64%
viability, T/C (second compound 1 µM, first compound 0.1 µM): 7.73%
viability, T/C (second compound 1 µM, first compound 0.316 µM): 8.18%
viability, T/C (second compound 1 µM, first compound 1 µM): 9.23%
viability, T/C (second compound 1 µM, first compound 3.16 µM): 8.77%
viability, T/C (second compound 1 µM, first compound 10 µM): 8.2%
viability, T/C (second compound 3.16 µM, first compound 0.0316 µM): 6.12%
viability, T/C (second compound 3.16 µM, first compound 0.1 µM): 6.59%
viability, T/C (second compound 3.16 µM, first compound 0.316 µM): 5.52%
viability, T/C (second compound 3.16 µM, first compound 1 µM): 4.57%
viability, T/C (second compound 3.16 µM, first compound 3.16 µM): 5.64%
viability, T/C (second compound 3.16 µM, first compound 10 µM): 6.94%
viability, T/C (second compound 10 µM, first compound 0.0316 µM): 5.81%
viability, T/C (second compound 10 µM, first compound 0.1 µM): 5.32%
viability, T/C (second compound 10 µM, first compound 0.316 µM): 2.97%
viability, T/C (second compound 10 µM, first compound 1 µM): 3.66%
viability, T/C (second compound 10 µM, first compound 3.16 µM): 2.62%
viability, T/C (second compound 10 µM, first compound 10 µM): 4.15%

IC50 (second compound 0.1 µM): < 9.49 nM
IC50 (second compound 0.316 µM): < 9.49 nM
IC50 (second compound 1 µM): < 9.49 nM
IC50 (second compound 3.16 µM): < 9.49 nM
IC50 (second compound 10 µM): < 9.49 nM
SMILES: Cc1nc(N2CCC3(CC2)COC(C)C3N)c(CO)nc1Sc1ccnc(N)c1Cl (stereo not given) + Cc1c(S(C)(=O)=O)c(-c2cc(F)cc(N3CCN(c4ccc(NS(=O)(=O)c5ccc(NC(CCN6CCC(C(=O)OCCCP(=O)(O)O)CC6)CSc6ccccc6)c(S(=O)(=O)C(F)(F)F)c5)cc4)CC3)c2)c(-c2ccc(Cl)cc2)n1C(C)C
viability, T/C (second compound 0.1 µM, first compound 0.00949 µM): 11.9%
viability, T/C (second compound 0.1 µM, first compound 0.03 µM): 11.6%
viability, T/C (second compound 0.1 µM, first compound 0.0949 µM): 11.1%
viability, T/C (second compound 0.1 µM, first compound 0.3 µM): 7.3%
viability, T/C (second compound 0.1 µM, first compound 0.949 µM): 7.66%
viability, T/C (second compound 0.1 µM, first compound 3 µM): 5.44%
viability, T/C (second compound 0.316 µM, first compound 0.00949 µM): 8.93%
viability, T/C (second compound 0.316 µM, first compound 0.03 µM): 9.76%
viability, T/C (second compound 0.316 µM, first compound 0.0949 µM): 7.87%
viability, T/C (second compound 0.316 µM, first compound 0.3 µM): 5.11%
viability, T/C (second compound 0.316 µM, first compound 0.949 µM): 5.06%
viability, T/C (second compound 0.316 µM, first compound 3 µM): 4.22%
viability, T/C (second compound 1 µM, first compound 0.00949 µM): 7.05%
viability, T/C (second compound 1 µM, first compound 0.03 µM): 7.01%
viability, T/C (second compound 1 µM, first compound 0.0949 µM): 6.81%
viability, T/C (second compound 1 µM, first compound 0.3 µM): 4.44%
viability, T/C (second compound 1 µM, first compound 0.949 µM): 4.09%
viability, T/C (second compound 1 µM, first compound 3 µM): 2.1%
viability, T/C (second compound 3.16 µM, first compound 0.00949 µM): 4.29%
viability, T/C (second compound 3.16 µM, first compound 0.03 µM): 6.13%
viability, T/C (second compound 3.16 µM, first compound 0.0949 µM): 4.92%
viability, T/C (second compound 3.16 µM, first compound 0.3 µM): 3.71%
viability, T/C (second compound 3.16 µM, first compound 0.949 µM): 2.47%
viability, T/C (second compound 3.16 µM, first compound 3 µM): 2.4%
viability, T/C (second compound 10 µM, first compound 0.00949 µM): 4.54%
viability, T/C (second compound 10 µM, first compound 0.03 µM): 4.83%
viability, T/C (second compound 10 µM, first compound 0.0949 µM): 3.89%
viability, T/C (second compound 10 µM, first compound 0.3 µM): 3.77%
viability, T/C (second compound 10 µM, first compound 0.949 µM): 2.82%
viability, T/C (second compound 10 µM, first compound 3 µM): 1.96%
